One may read the IC50 as the point on the concentration scale where inhibition reaches its midpoint.

Drawing on PubChem BioAssay AID1981 (Southern Research Specialized Biocontainment Screening …, 2009), this text covers IC50 for 72 compounds.

This assay concerns S. Typhimurium PhoP-promoter GFP reporter counterscreen, fluorescence, 4 h. Description: S. Typhimurium GFP fluorescence modified counterscreen for PhoP regulon inhibitor project dose response (AID 1981). A general note: A counterscreen serves to expose hits that act by an unwanted route or on another target.
As for `Nc1ncn(C2O[C@H](CO)[C@@H](O)[C@H]2O)c(=O)n1` (some centres not stated), the 50% inhibitory concentration (IC50) was 13.2 µM.

For `COc1cc(/C=C/[N+](=O)[O-])ccc1O`, the IC50 is 65.1 µM.

With `O=C(Oc1ccc[nH]c1=O)c1cc([N+](=O)[O-])cc([N+](=O)[O-])c1`, the 50% inhibitory concentration (IC50) was 79.7 µM.

In the case of `C[C@H]1c2cccc(O)c2C(O)=C2C(=O)C3(O)C(O)=C(C(N)=O)C(=O)[C@@H](N(C)C)[C@@H]3[C@@H](O)[C@@H]21` (some centres not stated), the IC50 was 1.83 µM.

On to `NC(N)=NN=C1CCCCCCCCCCC1`, for which the IC50 is 81.7 µM.

In the case of `CCn1cc(C(=O)O)c(=O)c2cc(F)c(N3CCN(C(=S)NC(=O)c4ccccc4C)CC3)cc21`, the concentration for half-maximal inhibition (IC50) was 22.2 µM.

`COc1ccc(CNC[C@@H](CCCCN(C)Cc2ccc(OC)cc2)N2C[C@H](c3ccccc3)N(CCc3ccc(Cl)c(Cl)c3)C(=O)C2=O)cc1`: the 50% inhibitory concentration (IC50) was 108 µM.

Take `CNC(=S)N1CCN(c2c(F)cc3c(=O)c(C(=O)O)cn(C4CC4)c3c2OC)CC1C` (configuration not stated): the half-inhibitory concentration (IC50) was 15.2 µM.

`CCOc1ccc(Nc2c3ccccc3nc3ccccc23)cc1`: the IC50 was 94 µM.

With `NC1=NC[C@H](Cc2ccc(O)cc2)N1CCCCC1CCCCC1`, the IC50 was 84.1 µM.

Take `Oc1ccc(N2CCN(Cc3ccc(OCCCN4CCCCC4)cc3)CC2)cc1`: the IC50 was 110 µM.

In the case of `c1ccc(-c2nnc(-c3ccccn3)nc2NC2CCCCC2)cc1`, the IC50 was 148 µM.

Regarding `Cc1nc(N)c(Cc2ccc(Cl)cc2Cl)c(N)n1`, the IC50 was 86.9 µM.

`CCCCCCCCCCCCCCCCn1cc[n+](CC(C)=O)c1`: the half-maximal inhibitory concentration (IC50) is 86.1 µM.

`CCCCCCCCn1c2c(c(=N)c3ccccc31)CCC2`: the IC50 is 78.7 µM.

As for `CC[n+]1c(/C=C/N(C)c2ccccc2)n(-c2ccccc2)c2ccc(-c3nc4ccccc4s3)cc21`, the half-inhibitory concentration (IC50) is 21.8 µM.

Regarding `CC(=O)Oc1cc2cccc(OC(C)=O)c(=O)c2c(OC(C)=O)c1OC(C)=O`, the IC50 is 17.7 µM.

In the case of `O=C(NN=C1CCN(Cc2ccccc2)CC1)c1cc2ccccc2cc1O`, the IC50 was 128 µM.

`C[C@H]1COc2c(N3CCN(C)CC3)c(F)cc3c(=O)c(C(=O)O)cn1c23`: the IC50 is below 0.23 µM.

`CCn1cc(C(=O)O)c(=O)c2cc(F)c(N3CCN(C(=S)NC(=O)c4ccc(F)cc4)CC3)cc21`: the IC50 was 53.4 µM.

With `Nc1nonc1C(=O)N/N=C/c1cc(Br)ccc1O`, the IC50 was 13 µM.

Regarding `CC(=O)NC(c1ccc(Cl)cc1Cl)c1ccc2cccnc2c1O` (configuration not stated), the IC50 is 40.2 µM.

On to `Cc1ccc(C)n1-c1cc(S(=O)(=O)N2CCOCC2)ccc1N1CCCC1`, for which the half-maximal inhibitory concentration (IC50) is 138 µM.

`Cc1ccc(-c2csc(NC(=O)C[n+]3cc(-c4ccc(C)cc4)n4c3CCC4)n2)cc1`: the IC50 was 45.2 µM.

For the compound `O=C(C[n+]1cccc(CNC(=O)c2ccc(OC(F)F)cc2)c1)Nc1ccc(SC(F)F)cc1`, the concentration for half-maximal inhibition (IC50) was 96.3 µM.

As for `CCC(C)(C)c1ccc(OCCCC[n+]2ccccc2)c(C(C)(C)CC)c1`, the IC50 is 63.4 µM.

For the compound `Cc1cc(C(C)(C)CC(C)(C)C)ccc1OCCOCC[N+](C)(C)Cc1ccccc1`, the 50% inhibitory concentration (IC50) was 34.6 µM.

For `CC1CCc2cc(F)cc3c(=O)c(C(=O)O)cn1c23` (configuration not stated), the IC50 is 13.5 µM.

As to `COc1ccc(C(=O)N/N=C/c2sc3ccccc3c2O)cc1`, the IC50 was 109 µM.

For `CCCCCCCCCCCCCCCC[N+](C)(C)CC`, the IC50 was 24.9 µM.

As to `CC(C)CCNCC(O)CON=C1c2ccccc2-c2ccccc21` (configuration not stated), the IC50 was 136 µM.

`O=C(C[n+]1cc(-c2ccc(Cl)cc2)n2c1CCC2)Nc1nc(-c2ccccc2)cs1`: the IC50 is 95 µM.

Take `CCCCCCCNC(=O)C1(CC2CC(c3ccc(Cl)cc3)=NO2)CCNCC1` (configuration not stated): the concentration for half-maximal inhibition (IC50) is 47.8 µM.

Turning to `NC1=NC[C@H](Cc2ccc(O)cc2)N1CCC12CC3CC(CC(C3)C1)C2`, the IC50 is 78.9 µM.

Regarding `CCCCCCCOC(=O)C[N+](C)(C)CCOC1CC2CCC1(C)C2(C)C` (configuration not stated), the IC50 was 40.6 µM.

`Cc1ccc(S(=O)(=O)/N=C2/C=C(Sc3ncn[nH]3)C(=O)c3ccccc32)c(C)c1`: the half-maximal inhibitory concentration (IC50) is 56.1 µM.

As for `Oc1c(CN2CCc3ccccc3C2)cc(Cl)c2cccnc12`, the half-maximal inhibitory concentration (IC50) is 7.36 µM.

Regarding `Cc1ccc(S(=O)(=O)Nc2cc(Cl)c(O)c3ncccc23)cc1`, the IC50 is 37.5 µM.

For the compound `O=[N+]([O-])c1cc(F)c2cccnc2c1O`, the IC50 is 9.5 µM.

`CCCCCN=C(N)N/N=C/c1c[nH]c2ccc(OC)cc12`: the half-maximal inhibitory concentration (IC50) was 40.4 µM.

Take `Cc1cc(C)c2ccc(N)nc2c1O`: the concentration for half-maximal inhibition (IC50) was 49.9 µM.

`O=C(N/N=C/c1cc(O)ccc1Br)c1cccnc1`: the half-maximal inhibitory concentration (IC50) is 43.5 µM.

`Cc1ccc(-c2c[n+](CC(=O)Nc3nc(-c4ccc(F)cc4)cs3)c3n2CCC3)cc1`: the half-maximal inhibitory concentration (IC50) is 72.5 µM.

Turning to `Cc1ccc(Nc2c3c(nc4ccccc24)CCC3)cc1`, the concentration for half-maximal inhibition (IC50) is 146 µM.

As to `O=C(CSc1nc2ccccc2s1)N/N=C/c1cc([N+](=O)[O-])ccc1O`, the concentration for half-maximal inhibition (IC50) was 85.3 µM.

For `Cc1cccc(Nc2nc(NCc3ccco3)c3ccccc3n2)c1`, the 50% inhibitory concentration (IC50) was 37.9 µM.

As for `O=C(N[C@H](CO)[C@H](O)c1ccc([N+](=O)[O-])cc1)C(Cl)Cl`, the IC50 was 8.46 µM.

With `CC[n+]1c(/C=C/C=C/c2ccc(N(C)C)cc2)sc2ccccc21`, the half-maximal inhibitory concentration (IC50) is 74 µM.

Turning to `O=C1C(=O)c2ccccc2-c2ccccc21`, the IC50 was 87.3 µM.

For `Cc1sc2ncnc(N/N=C/c3ccccc3O)c2c1C`, the IC50 was 69.2 µM.

Take `CCCCCCCCCCOC(=O)C[N+](C)(C)C/C=C(/C)Cl`: the IC50 was 83.3 µM.

As for `O=C(N/N=C/c1cccs1)c1cccs1`, the IC50 is 81.4 µM.

Regarding `CC(=O)NC(c1ccc2ccccc2c1)c1ccc2cccnc2c1O` (configuration not stated), the IC50 was 46.2 µM.

Consider `N=C(N)SCc1cn(-c2ccccc2)nc1-c1ccc(Br)cc1`, for which the IC50 is 36.1 µM.

Turning to `Cc1ccc(Nc2nc(NCc3ccco3)c3ccccc3n2)cc1`, the IC50 was 23.6 µM.

For `CCCCOc1ccc(Br)cc1CSC(=N)N`, the 50% inhibitory concentration (IC50) is 97.8 µM.

With `Clc1ccc(OCCCNCc2ccccc2)c(Br)c1`, the IC50 is 71.8 µM.

Take `NC1=NC[C@H](c2ccccc2)N1CCCCC1CCCCC1`: the IC50 was 66 µM.

`C1=C(CCNCc2ccccc2)CCCC1`: the half-maximal inhibitory concentration (IC50) is 9.75 µM.

Turning to `CN(C)CCCNc1cc(C(C)(C)C)nc2c(-c3ccccc3)cnn12`, the half-inhibitory concentration (IC50) is 83.5 µM.

Turning to `O=C1C=C(N2CCOCC2)c2ccccc2C1=O`, the IC50 was 69.9 µM.

On to `O=C(C[n+]1cc(-c2ccc(Cl)c(Cl)c2)n2c1CCC2)N1c2ccccc2Sc2ccccc21`, for which the half-maximal inhibitory concentration (IC50) was 84.7 µM.

As to `CCC(C)NC(=O)c1cn(CC)c2cc(N3CCN(C)CC3)c(F)cc2c1=O` (configuration not stated), the concentration for half-maximal inhibition (IC50) was 59 µM.

Turning to `COc1cccc(Nc2nc(NCC3CCCO3)c3ccccc3n2)c1` (configuration not stated), the 50% inhibitory concentration (IC50) was 102 µM.

Regarding `CCCCNC(=O)c1cn(CC)c2cc(N3CCN(C)CC3)c(F)cc2c1=O`, the IC50 is 63.6 µM.

As for `CCCCCCCSc1cc(OC)c(CCNC)cc1OC`, the IC50 was 71.8 µM.

As for `CCCC(=O)NC(c1ccc(Cl)cc1)c1ccc2cccnc2c1O` (configuration not stated), the IC50 was 62.3 µM.

`CCOc1ccc(NC(=O)c2ccc(NC(=O)c3cn4c5c(c(N6CCN(C)CC6)c(F)cc5c3=O)OCC4C)cc2)cc1` (configuration not stated): the IC50 was 4.1 µM.

On to `CC(=O)N1CCN(c2cc3c(cc2F)c(=O)c(C(=O)O)cn3C2CC2)CC1`, for which the IC50 was 21.6 µM.

Consider `CCOc1ccc(Nc2nc(N)c3ccccc3n2)cc1`, for which the IC50 was 109 µM.

Regarding `CN(C)c1ccc(/C=C/c2ccc3ccccc3[n+]2C)cc1`, the IC50 was 26.9 µM.

Turning to `C(=N\Nc1ccccn1)/c1cccnc1`, the IC50 was 62.2 µM.
